Experimental data published in patent publication US20060281807A1, “Quassinoid compositions for the treatment of cancer and other proliferative diseases” (Tapestry Pharmaceuticals, Inc., priority 2005, published 2006).

Test system: tumor cells
Test: Inhibition of tumor growth in vivo (% T/C) in SCID mice
Experimental: SCID mice weighing more than 17 grams were supplied food and water ad libidum. The animals were pooled, implanted subcutaneously with tumor cells, and pooled again before distribution to treatment and control groups. Treatment was started when the tumors were palpable (i.e., 10 days after inoculation). Mice received one of four doses (i.e., 1.6, 1.2, 0.8, and 0.4 mg/mouse) of the inventive compound. Each dose was administered intravenously via the tail vein once per day for 5 days. Mice were killed when their tumors reached 1500 mm^3.
Tumor weights were estimated from two-dimensional caliper measurements performed twice a week according to the following formula: Tumor Weight (mg)=(a×b^2)/2 in which a and b are the tumor length and width, respectively, in millimeters.
Therapeutic efficacy was measured as the % T/C value (T=treated, C=control), which was determined each time a tumor measurement was made. The median tumor weight of the treatment and control groups was determined. A % T/C value equal to or less than 50% indicates antitumor activity. A % T/C value of <10% indicates highly significant antitumor activity, and is the level used by the National Cancer Institute (NCI) to justify a clinical trial if toxicity, formulation and other requirements are met. A weight loss of greater than 20% (mean of group) or greater than 20% drug deaths indicates an excessively toxic dose.

COC(=O)[C@@]12OC[C@@]34C1[C@@H](OC(=O)CC(O)(C(C)C)C(C)C)C(=O)O[C@@H]3C[C@H]1C(C)=C(O)C(=O)C[C@]1(C)[C@H]4[C@@H](O)[C@@H]2O (stereo partly drawn) [15-O-(3′-hydroxy-3′-isopropyl-4′-methylpentanoyl)bruceolide]
% T/C (0.4 mg/mouse intravenously once per day for 5 days (lower dose group)): 31% | % T/C (0.8 mg/mouse intravenously once per day for 5 days (higher dose group of the surviving two)): 16% | mortality (highest two doses (1.6 and 1.2 mg/mouse) intravenously once per day for 5 days): died
